Laboratory results reported in US5422353A, “Tetrahydropyridine derivatives” (Boehringer Ingelheim KG, priority 1988, dated 1995).

What was measured:
muscarinic receptors = assay: Receptor binding studies (radioligand L(+)cis-[2-methyl-3H]-N,N,N-trimethyl-1,3-dioxolan-4-methanammonium-iodide, NET-647); settings: cerebral cortex (rat); radioligand NET-647; tested as maleate (MA) or oxalate (OX) salt
Method: The compounds of formulae I and Ia have valuable pharmacological properties. Thus, in bonding studies, they show affinities with muscarinic receptors and muscarbin-agonistic GTP-shifts (GTP=guanosintriphosphate). (Birdshall, N. I. M., E. C. Hulme and J. M. Stockton 1984 in T.I.P.S. Supplement, Proc. Internat. Symposium on Subtypes of Muscarinic Receptors, Ed. Hirschowitz, Hammer, Giacchetti, Keirns, Levine; Elsevier p. 4-8).
The receptor binding studies were carried out according to: A. Closse, H. Bittiger, D. Langenegger and A. Wanner, Naunyn-Schmiedeberg's Arch. Pharmacol. 335, 372-377 (1987).
Receptor binding studies
L(+)cis-[2-methyl-^3 H]-N,N,N-trimethyl-
1,3-dioxolan-4-methanammonium-iodide
NET-647, Messrs. NEN (New England
Organ: Cerebral cortex (rat)

conscious rabbit = assay: arousal reaction in the EEG (electroencephalograph) of a conscious rabbit; format: in vivo

SMILES	Ki (muscarinic receptors) [nM]	arousal reaction typical of cholinomimetics in the EEG (conscious rabbit; 0.1 mg/kg and 0.3 mg/kg i.v.)	arousal reaction typical of cholinomimetics in the EEG (conscious rabbit; 1 mg/kg and 3 mg/kg i.v.)
CSCC1=CCN(C)CC1 [Example 13, 1-Methyl-4-[(methylthio)methyl]-1,2,3,6-tetrahydropyridine]	15	exhibit an arousal reaction typical of cholinomimetics	–
CCCOCC1=CCN(C)CC1 [Example 9, 1-Methyl-4-propoxymethyl-1,2,3,6-tetrahydropyridine]	140	–	–
CCOCC1=CCN(C)CC1 [Example 2, 4-Ethoxymethyl-1-methyl-1,2,3,6-tetrahydropyridine]	210	–	exhibit an arousal reaction typical of cholinomimetics
CCSCC1=CCN(C)CC1 [Example 4, 4-[(Ethylthio)methyl]-1-methyl-1,2,3,6-tetrahydropyridine]	8.3	–	–
COCCC1=CCN(C)CC1 [OX, 4-(methoxyethyl)-1-methyl-1,2,3,6-tetrahydropyridine]	3900	–	–
